What all share (type): cell-based
For experiment [1], the system named is Human Embryonic Stem Cells (H1 hESC line). The experiment can be described thus: FACS analysis of CXCR4 at conclusion of first step of step-wise differentiation (Example 12). Particulars: 100 ng/ml peptide, end of first step (three days), FIG. 23A, 23B. As for the experimental part: (§1) Preparation of Cells for Assay: Stock Cultures of Human Embryonic Stem Cells (H1 hESC line) were maintained in an undifferentiated, pluripotent state on growth factor-reduced MATRIGEL™-coated dishes in MEF conditioned medium supplemented with bFGF (PeproTech; Cat #100-18B) with passage on average every, four days. Passage was performed by exposing cell cultures to a solution of 1 mg/ml collagenase (Invitrogen, Cat #17104-019) for five to seven minutes at 37° C. followed by rinsing the monolayer with MEF conditioned medium and gentle scraping to recover cell clusters. Clusters were centrifuged at low speed to collect a cell pellet and remove residual collagenase. Cell clusters were split at a 1:3 or 1:4 ratio for routine maintenance culture or a 1:1 ratio for immediate assay. All human ES cell lines were maintained at passage numbers less than 50 and routinely evaluated for normal karyotypic phenotype and for absence of mycoplasma contamination.
(§2) Cell clusters were evenly resuspended in MEF conditioned medium supplemented with 8 ng/ml bFGF and seeded onto growth factor-reduced MATRIGEL™-coated 24-well, black wall culture plates (Arctic White; Cat #AWLS-303012) in volumes of 0.5 ml/well. Daily feeding was conducted by aspirating spent culture medium from each well and replacing with an equal volume of fresh medium. Plates were maintained at 37° C., 5% CO2 throughout the duration of assay.
(§3) Assay: The assay was initiated by aspirating culture medium from each well and adding back an aliquot (0.5 ml) of test medium. Test conditions for the first step of differentiation were conducted over a three-day period, feeding daily by aspirating and replacing the medium from each well with fresh test medium. Concentrated supernatants of the ACTN peptides were evaluated for protein concentration using a DuoSet ELISA kit for human activin A (R&D Systems; Cat #DY338), as previously described in Example 11. On the first day of assay, ACTN peptides were diluted to a final concentration of 100 ng/ml in RPMI 1640 medium (Invitrogen; Cat #: 22400) with 2% Albumin Bovine Fraction V, Fatty Acid Free (FAF BSA) (MP Biomedicals, Inc; Cat #152401), 8 ng/ml bFGF, and 20 ng/ml Wnt3a (R&D Systems; Cat #1324-WN/CF) and then added to the assay wells. On the second and third day of assay, ACTN peptides were diluted into RPMI 1640 medium supplemented with 2% fatty acid free BSA and 8 ng/ml bFGF, without any Wnt3a and then added to the assay wells. A positive control sample included a commercial source of activin A (PeproTech; Cat #12 0-14) diluted in culture medium with growth factors as indicated. At the conclusion of three days culture, cells from some wells were harvested for analysis by flow cytometry to evaluate levels of CXCR4, a marker of definitive endoderm formation. […]

Experiment [2] shares this test system. The experiment can be described thus: High content analysis of cell number and SOX17 expression at end of first step of differentiation (Example 12). As to conditions: 100 ng/ml peptide, FIG. 23C-F. On the procedure: as §1, §2, §3
In experiment [3] the test system is H1 or H9 human embryonic stem cells. The experiment can be described thus: Activin A bioassay: differentiation of human embryonic stem cells to definitive endoderm, cell number and SOX17 intensity by high content analysis (96-well, four days). The method, boiled down:
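Read-out was cell count and integrated SOX17 immunofluorescence by high-content imaging, with each well divided by the mean of the 100 ng/ml activin A control. Over the four-day culture, test samples were given in DMEM:F12 with 0.5% FCS plus 20 ng/ml Wnt3a for the first two days and in 2% FCS alone for the last two. Cells were H1 or H9 hESC clusters grown on Matrigel.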

The results in this text go back to US20110091971A1, “Differentiation of Pluripotent Stem Cells” (priority 2008, published 2011).

Regarding activin A [reference compound], in experiment [1], the “CXCR4 expression (FACS)” value was “equivalent and robust CXCR4 expression”. Also, in experiment [2], the “cell number and SOX17 expression (high content analysis)” value is “equivalent results”. The SOX17 expression entry in experiment [3] (Wnt3a omitted from treatment on days 1 and 2) is “failed to produce measurable SOX17 expression”. The “Optimal activin A effects for induction of SOX17 expression (concentration range)” value in experiment [3] (commercial activin A (Peprotech), 20 ng/ml Wnt3a on days 1 and 2, four days) lay in the range of 100 to 200 ng/mL. The “EC50 for induction of SOX17 expression” value in experiment [3] (commercial activin A (Peprotech), two-fold dilution curve, 20 ng/ml Wnt3a on days 1 and 2, four days) was 0.03 to 0.05 µg/mL.
